According to article PMC9019100, “Development of NanoLuc-targeting protein degraders and a universal reporter system to benchmark tag-targeted degradation platforms” (Nature Communications, 2022):
Values joined by “and” are separate entries in the source; they are usually repeats but may differ in a detail not shown here. Identical values can stand only once. Like-named read-outs stand apart in the source and are kept apart here.

Assays:
[1] = tested on: MLKL^−/− HT29 cells expressing MLKL-FKBP^F36V; assay type: cell-based; details: for TNF+911+zVAD (PI exclusion): MLKL-/- + MLKL FKBPF36V, replicate columns
Procedure: (§3) Cell death was assessed by flow cytometric analysis of PI exclusion. […] Cell death was assessed by flow cytometric analysis of PI exclusion. […] Cell death was assessed by flow cytometric analysis of PI exclusion. e N = 4, f N = 3 independent experiments (symbols), EB represent mean ± SD. g Western from MLKL^−/−CASP8^−/− HT29 cells stably expressing the doxycycline-inducible C-terminal fusion protein, MLKL-NanoLuc (MLKL-NLuc) and constitutively expressing the C-terminal fusion protein caspase-8-FKBP^F36V. […] Cell death was assessed using an IncuCyte and Cytotox-Red uptake. N = 3 independent experiments, one representative experiment shown, EB represent mean ± SD.
(§4) Degrader compounds or a DMSO vehicle control were added for 5 h, as stated in the Fig. legends. Cells were detached using Trypsin-EDTA (Merck) and resuspended in cell supernatants containing 10 μg/mL propidium iodide (PI). PI exclusion analysis was performed using an LSR II flow cytometer (Becton Dickinson, NJ) with 10,000 single-cell events per sample. Flow cytometry data were analysed using WEASEL version 2.7 software (Frank Battye).

Fibrillarin-FKBP^F36V = biological target: T1, Fibrillarin-FKBP^F36V (Homo sapiens, UniProt P62942, F37V); assay type: cell-based; details: 500 nM, 10 h
T1 construct: endogenous in cells; host or cells: 293T, CRISPR/PITCh knock-in at the FBL locus

MLKL-FKBP^F36V = MLKL-FKBP^F36V (Homo sapiens, UniProt P62942, F37V); assay type: cell-based; details: 5 h, low nM concentrations
Procedure: All experiments were repeated independently three times, and a representative Fig. is shown.
All timepoint experiments were performed as reverse timepoints in order to harvest all cells at the same time. At the indicated time points cells were lysed in NuPAGE LDS lysis buffer (Invitrogen) diluted to 1× in DISC lysis buffer (20 mM Tris-HCl pH7.5, 150 mM NaCl, 2 mM EDTA pH 8.0, 1% Triton X-100, 10% glycerol, H20)) supplemented with β-Mercaptoethanol (2%), protease and phosphatase inhibitors. Lysates were run through polypropylene columns (Pierce) to shred DNA. […] Membranes were blocked in 5% skim milk (Devondale) in TBS-T (TBS, 0.1% Tween-20) for 1 h prior to immunoblotting with primary antibodies overnight at 4 °C. Unless stated otherwise, all primary antibodies were diluted in TBS-T (TBS, 0.1% Tween-20) containing 5% BSA (Sigma A8022) and 0.04% sodium azide: HaloTag (1:1000, Promega; G9211), NanoLuc (1:500, Promega; N7000), β-actin (1:20,000, Sigma; A-1798), MLKL (1:1000, produced in-house; 3H1 clone)[39], FKBP (1:1000, R&D systems; 422513), caspase-8 (1:1000, Proteintech; 13423-1-AP), Histone H3 (1:1000, Abcam; ab10799), Cadherin (1:1000, Cell Signalling Technologies; 4068 T). Membranes were washed 3 × 5–10 min in TBS-T (TBS, 0.1% Tween-20) prior to the addition of the appropriate secondary antibodies conjugated with horseradish peroxidase (Jaxon laboratories). […]

[2] = tested on: MLKL^−/− HT29 cells expressing MLKL-NanoLuc; assay type: cell-based; details: for Live cells (%PI negative) after TNF+911+zVAD: MLKL-/- + MLKL NanoLuc, independent experiments
Procedure: as §3, §4

NanoLuc-SLC38A2 = biological target: T2, NanoLuc-SLC38A2 (Oplophorus gracilirostris, UniProt Q9GV45, A31E/A60N/A81I/F95D/I117V/K70R/L54V/L99Q/M102K/N193R/P142E/Q151K/Q38R/Q45L/V71I/Y165I); experiment: Western blot of 293T cells expressing NanoLuc-SLC38A2; assay type: cell-based; details: 125-500 nM, 5 h
T2 construct: expressed in transfected cells; host or cells: 293T, doxycycline-induced
Procedure: (§1) Cells were seeded in 24-well plates ±doxycycline (20 ng/mL for HEK293T, 40 ng/mL for HT29) and incubated overnight (16–24 h) prior to degrader treatments, as stated in the Fig. legends. All timepoint experiments were performed as reverse timepoints in order to harvest all cells at the same time. At the indicated time points cells were lysed in NuPAGE LDS lysis buffer (Invitrogen) diluted to 1× in DISC lysis buffer (20 mM Tris-HCl pH7.5, 150 mM NaCl, 2 mM EDTA pH 8.0, 1% Triton X-100, 10% glycerol, H20)) supplemented with β-Mercaptoethanol (2%), protease and phosphatase inhibitors. Lysates were run through polypropylene columns (Pierce) to shred DNA. […] Membranes were blocked in 5% skim milk (Devondale) in TBS-T (TBS, 0.1% Tween-20) for 1 h prior to immunoblotting with primary antibodies overnight at 4 °C. Unless stated otherwise, all primary antibodies were diluted in TBS-T (TBS, 0.1% Tween-20) containing 5% BSA (Sigma A8022) and 0.04% sodium azide: HaloTag (1:1000, Promega; G9211), NanoLuc (1:500, Promega; N7000), β-actin (1:20,000, Sigma; A-1798), MLKL (1:1000, produced in-house; 3H1 clone)[39], FKBP (1:1000, R&D systems; 422513), caspase-8 (1:1000, Proteintech; 13423-1-AP), Histone H3 (1:1000, Abcam; ab10799), Cadherin (1:1000, Cell Signalling Technologies; 4068 T). […]
(§2) NC4. […] Cell death was assessed by flow cytometric analysis of PI exclusion. […]

MLKL-NanoLuc = biological target: T3, MLKL-NanoLuc (Oplophorus gracilirostris, UniProt Q9GV45, A31E/A60N/A81I/F95D/I117V/K70R/L54V/L99Q/M102K/N193R/P142E/Q151K/Q38R/Q45L/V71I/Y165I); experiment: Western blot of MLKL^−/− HT29 cells expressing MLKL-NanoLuc; assay type: cell-based, human; details: 62.5-500 nM, 5 h
T3 construct: expressed in transfected cells; host or cells: MLKL-/- HT29 (A12); MLKL-/-CASP8-/- HT29 (A24); doxycycline-inducible
Procedure: as §1, §2

[3] = biological target: Halo-EGFP-NanoLuc-FKBP^F36V (H-E-N-F) fusion protein (UniProt P0A3G2+P62942+Q9GV45, A155T/A167V/A172T/A224E/A31E/A60N/A81I/C128F/C176G/D78G/E160K/E257K/F37V/F95D/H272N/I117V/K175M/K195N/K70R/L47V/L54V/L88M/L99Q/M102K/N193R/N227D/P142E/P291S/Q151K/Q38R/Q45L/S2A/S58T/T264A/V71I/Y165I/Y273L/Y87F); assay type: cell-based; details: 5 h
[4] = biological target: recombinant NanoLuc enzyme (Oplophorus gracilirostris, UniProt Q9GV45, A31E/A60N/A81I/F95D/I117V/K70R/L54V/L99Q/M102K/N193R/P142E/Q151K/Q38R/Q45L/V71I/Y165I); assay type: biochemical
[5] = 5 h pre-treatment, then TSZ 24 h

Sequence of Halo-EGFP-NanoLuc-FKBP^F36V (H-E-N-F) fusion protein (Q9GV45 other isoform, or with tags, fused parts or gaps with the stated changes): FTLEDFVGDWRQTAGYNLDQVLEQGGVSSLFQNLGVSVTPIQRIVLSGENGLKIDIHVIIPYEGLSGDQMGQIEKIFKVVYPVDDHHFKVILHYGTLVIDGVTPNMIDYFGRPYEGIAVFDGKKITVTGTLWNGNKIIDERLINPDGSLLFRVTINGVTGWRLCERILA
Sequence of Halo-EGFP-NanoLuc-FKBP^F36V (H-E-N-F) fusion protein (P0A3G2 other isoform, or with tags, fused parts or gaps with the stated changes): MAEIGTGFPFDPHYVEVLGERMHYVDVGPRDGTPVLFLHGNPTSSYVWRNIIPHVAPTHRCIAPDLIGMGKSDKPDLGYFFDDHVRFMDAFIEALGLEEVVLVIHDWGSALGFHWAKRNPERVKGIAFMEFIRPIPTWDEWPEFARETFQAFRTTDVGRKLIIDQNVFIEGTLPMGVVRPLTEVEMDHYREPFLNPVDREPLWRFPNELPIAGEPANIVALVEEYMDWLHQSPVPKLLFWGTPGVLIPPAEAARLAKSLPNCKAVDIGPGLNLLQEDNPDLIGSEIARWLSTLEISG
Sequence of Halo-EGFP-NanoLuc-FKBP^F36V (H-E-N-F) fusion protein (P62942 whole entry F37V, the tested form may be a part): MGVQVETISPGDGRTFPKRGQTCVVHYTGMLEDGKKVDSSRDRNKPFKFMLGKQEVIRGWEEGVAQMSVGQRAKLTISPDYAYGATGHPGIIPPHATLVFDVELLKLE
Sequence of recombinant NanoLuc enzyme (Q9GV45 other isoform, or with tags, fused parts or gaps with the stated changes): as the sequence (Q9GV45 other isoform, or with tags, fused parts or gaps with the stated changes) above
T2 sequence (Q9GV45 other isoform, or with tags, fused parts or gaps with the stated changes): as above
T3 sequence (Q9GV45 other isoform, or with tags, fused parts or gaps with the stated changes): as above
T1 sequence (P62942 whole entry F37V): as the sequence (P62942 whole entry F37V, the tested form may be a part) above
Sequence of MLKL-FKBP^F36V (P62942 whole entry F37V): as the sequence (P62942 whole entry F37V, the tested form may be a part) above

CC[C@H](C(=O)N1CCCC[C@H]1C(=O)O[C@H](CCc1ccc(OC)c(OC)c1)c1ccccc1OCC(=O)NCCCCCCC(=O)N[C@H](C(=O)N1C[C@H](O)C[C@H]1C(=O)N[C@@H](C)c1ccc(-c2scnc2C)cc1)C(C)(C)C)c1cc(OC)c(OC)c(OC)c1 [FV1]
concentration sustaining cell survival over 24 h [1, 5]: 3.9 nM | TNF+911+zVAD (PI exclusion) ([1]; degrader 3.9nM): 77.6 and 82.1 and 75.3 | TNF+911+zVAD (PI exclusion) ([1]; degrader 7.8nM): 84.5 and 86.7 and 79.8 | TNF+911+zVAD (PI exclusion) ([1]; degrader 31.25nM): 80.9 and 86.7 and 82.1 | TNF+911+zVAD (PI exclusion) ([1]; degrader 62.5nM): 79.4 and 87 and 83.1 | TNF+911+zVAD (PI exclusion) ([1]; degrader 250nM): 80.6 and 84.5 and 80.8 | TNF+911+zVAD (PI exclusion) ([1]; degrader 500nM): 69.7 and 81.6 and 78.5 | TNF+911+zVAD (PI exclusion) ([1]; degrader 1000nM): 63.8 and 77.3 and 74.7 | Dmax (densitometry) (Fibrillarin-FKBP^F36V): ~ 95.9% | MLKL-FKBP^F36V protein level by Western blot (MLKL-FKBP^F36V): no detectable protein

CCc1cccc(N(CC)C(=O)Cn2c(C(=O)NC3CCC(C(=O)NCCCCCCCC(=O)NCCCCNc4cccc5c4C(=O)N(C4CCC(=O)NC4=O)C5=O)CC3)cc3ccccc32)c1 (stereo not drawn) [NC4]
effect on MLKL-NanoLuc-driven necroptosis [2, 5]: sufficient to reduce MLKL-NanoLuc-driven necroptosis | Live cells (%PI negative) after TNF+911+zVAD ([2]; 31.25nM): 46.4 and 73.2 and 58.1 | Live cells (%PI negative) after TNF+911+zVAD ([2]; 62.5nM): 53.4 and 72.4 and 68.5 | Live cells (%PI negative) after TNF+911+zVAD ([2]; 250nM): 58.1 and 71.5 and 68.6 | Live cells (%PI negative) after TNF+911+zVAD ([2]; 500nM): 54.7 and 68.7 and 64.4 | Live cells (%PI negative) after TNF+911+zVAD ([2]; 1000nM): 53.1 and 66.7 and 61.4 | NanoLuc-SLC38A2 level by Western blot (NanoLuc-SLC38A2): reduction in Nanoluc-SLC38A2 | degradation of MLKL-NanoLuc, comparison of NanoTACs (MLKL-NanoLuc): most effective degradation profile | degradation of the H-E-N-F substrate protein by Western blot, comparison of NanoTACs ([3]; 125-500 nM): consistently outperforming the first analogue NC1 | low concentration triggering degradation of the fusion protein ([3]; Western blot): ~ 30 nM | reduced inhibition of NanoLuc enzymatic activity compared to the parent inhibitor (NanoLuc inhibitor 2) [4]: ~ 30 fold
